Active and inactive are the calls of the source. The rule behind the calls is not given here. Peptide text beside a SMILES is read from it. * marks the point of attachment. Carboxymethyl = O=C(O)C*; CH2CH2COOH = O=C(O)CC*
Legend:
[1] = target: T1, Glucagon receptor (Homo sapiens, UniProt P47871); test: Partial antagonist activity at human GCGR expressed in HEK293 cells assessed as inhibition of glucogon-induced cAMP production; assay type: functional, cell-based; conditions: filed as antagonist
[2] = target: T1, Glucagon receptor; test: Antagonist activity at human GCGR expressed in HEK293 cells assessed as inhibition of glucogon-induced cAMP production; assay type: functional, cell-based
[3] = target: T1, Glucagon receptor; test: Displacement of 125I-glucagon from human GCGR expressed in HEK293 cells membranes incubated for 6 hrs by liquid scintillation counting method; assay type: cell membranes, Membrane

T1 sequence (P47871 whole entry): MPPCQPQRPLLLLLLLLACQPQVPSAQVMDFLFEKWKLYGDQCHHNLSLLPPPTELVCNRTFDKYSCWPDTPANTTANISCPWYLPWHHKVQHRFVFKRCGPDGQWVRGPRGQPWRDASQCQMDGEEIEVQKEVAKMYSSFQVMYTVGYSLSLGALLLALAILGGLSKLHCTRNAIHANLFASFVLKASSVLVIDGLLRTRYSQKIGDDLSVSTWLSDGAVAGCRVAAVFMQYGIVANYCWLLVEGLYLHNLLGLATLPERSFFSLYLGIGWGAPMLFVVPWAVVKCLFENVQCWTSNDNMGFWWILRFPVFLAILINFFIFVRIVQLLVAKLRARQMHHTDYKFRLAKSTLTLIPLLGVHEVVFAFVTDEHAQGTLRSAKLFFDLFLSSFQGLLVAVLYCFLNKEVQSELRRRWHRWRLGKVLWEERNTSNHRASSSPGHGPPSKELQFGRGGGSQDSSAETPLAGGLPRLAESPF

Row | Activity [1] | IC50 [2] | IC50 [3] | Compound
1 | Active | – | – | CSCC[C@H](NC(=O)[C@H](CC(C)C)NC(=O)[C@H](Cc1c[nH]c2ccccc12)NC(=O)[C@H](CCC(N)=O)NC(=O)[C@@H](NC(=O)[C@H](Cc1ccccc1)NC(=O)[C@H](CC(=O)O)NC(=O)[C@H](CCC(N)=O)NC(=O)[C@H](C)NC(=O)[C@H](CCCNC(=N)N)NC(=O)[C@H](CCCNC(=N)N)NC(=O)[C@H](CO)NC(=O)[C@H](CC(=O)O)NC(=O)[C@H](CC(C)C)NC(=O)[C@H](Cc1ccc(O)cc1)NC(=O)[C@H](CCCCN)NC(=O)[C@H](CO)NC(=O)[C@H](Cc1ccc(O)cc1)NC(=O)C[C@H](CCC(=O)O)NC(=O)[C@H](CO)NC(=O)[C@@H](NC(=O)[C@H](Cc1ccccc1)NC(=O)[C@@H](NC(=O)CNC(=O)[C@H](CCC(N)=O)NC(=O)[C@@H](N)CO)[C@@H](C)O)[C@@H](C)O)C(C)C)C(=O)N[C@@H](CC(N)=O)C(=O)N[C@H](C(N)=O)[C@@H](C)O
2 | – | 0.275 µM | – | H-GTFTSEYSKYLDSRRAQDFVQWLMNT-NH2
3 | Active | – | – | CSCC[C@H](NC(=O)[C@H](CC(C)C)NC(=O)[C@H](Cc1c[nH]c2ccccc12)NC(=O)[C@H](CCC(N)=O)NC(=O)[C@@H](NC(=O)[C@H](Cc1ccccc1)NC(=O)[C@H](CC(=O)O)NC(=O)[C@H](CCC(N)=O)NC(=O)[C@H](C)NC(=O)[C@H](CCCNC(=N)N)NC(=O)[C@H](CCCNC(=N)N)NC(=O)[C@H](CO)NC(=O)[C@H](CC(=O)O)NC(=O)[C@H](CC(C)C)NC(=O)[C@H](Cc1ccc(O)cc1)NC(=O)[C@H](CCCCN)NC(=O)[C@H](CO)NC(=O)[C@H](Cc1ccc(O)cc1)NC(=O)[C@H](CSCCC(=O)O)NC(=O)[C@H](CO)NC(=O)[C@@H](NC(=O)[C@H](Cc1ccccc1)NC(=O)[C@@H](NC(=O)CNC(=O)[C@H](CCC(N)=O)NC(=O)[C@@H](N)CO)[C@@H](C)O)[C@@H](C)O)C(C)C)C(=O)N[C@@H](CC(N)=O)C(=O)N[C@H](C(N)=O)[C@@H](C)O
4 | – | 0.0441 µM | 0.0952 µM | CSCC[C@H](NC(=O)[C@H](CC(C)C)NC(=O)[C@H](Cc1c[nH]c2ccccc12)NC(=O)[C@H](CCC(N)=O)NC(=O)[C@@H](NC(=O)[C@H](Cc1ccccc1)NC(=O)[C@H](CC(=O)O)NC(=O)[C@H](CCC(N)=O)NC(=O)[C@H](C)NC(=O)[C@H](CCCNC(=N)N)NC(=O)[C@H](CCCNC(=N)N)NC(=O)[C@H](CO)NC(=O)[C@H](CC(=O)O)NC(=O)[C@H](CC(C)C)NC(=O)[C@H](Cc1ccc(O)cc1)NC(=O)[C@H](CCCCN)NC(=O)[C@H](CO)NC(=O)[C@H](Cc1ccc(O)cc1)NC(=O)[C@H](CCC(=O)O)NC(=O)[C@H](CO)NC(=O)[C@@H](NC(=O)[C@@H](N)Cc1ccc2ccccc2c1)[C@@H](C)O)C(C)C)C(=O)N[C@@H](CC(N)=O)C(=O)N[C@H](C(N)=O)[C@@H](C)O (HELM PEPTIDE1{[N[C@@H](Cc1ccc2ccccc2c1)C(=O)[*:2]].T.S.E.Y.S.K.Y.L.D.S.R.R.A.Q.D.F.V.Q.W.L.M.N.T.[am]}$$$$V2.0)
5 | Active | – | – | CSCC[C@H](NC(=O)[C@H](CC(C)C)NC(=O)[C@H](Cc1c[nH]c2ccccc12)NC(=O)[C@H](CCC(N)=O)NC(=O)[C@@H](NC(=O)[C@H](Cc1ccccc1)NC(=O)[C@H](CC(=O)O)NC(=O)[C@H](CCC(N)=O)NC(=O)[C@H](C)NC(=O)[C@H](CCCNC(=N)N)NC(=O)[C@H](CCCNC(=N)N)NC(=O)[C@H](CO)NC(=O)[C@H](CC(=O)O)NC(=O)[C@H](CC(C)C)NC(=O)[C@H](Cc1ccc(O)cc1)NC(=O)[C@H](CCCCN)NC(=O)[C@H](CO)NC(=O)[C@H](Cc1ccc(O)cc1)NC(=O)CN(CCCC(=O)O)C(=O)[C@H](CO)NC(=O)[C@@H](NC(=O)[C@H](Cc1ccccc1)NC(=O)[C@@H](NC(=O)CNC(=O)[C@H](CCC(N)=O)NC(=O)[C@@H](N)CO)[C@@H](C)O)[C@@H](C)O)C(C)C)C(=O)N[C@@H](CC(N)=O)C(=O)N[C@H](C(N)=O)[C@@H](C)O
6 | – | 0.0818 µM | – | CSCC[C@H](NC(=O)[C@H](CC(C)C)NC(=O)[C@H](Cc1c[nH]c2ccccc12)NC(=O)[C@H](CCC(N)=O)NC(=O)[C@@H](NC(=O)[C@H](Cc1ccccc1)NC(=O)[C@H](CC(=O)O)NC(=O)[C@H](CCC(N)=O)NC(=O)[C@H](C)NC(=O)[C@H](CCCNC(=N)N)NC(=O)[C@H](CCCNC(=N)N)NC(=O)[C@H](CO)NC(=O)[C@H](CC(=O)O)NC(=O)[C@H](CC(C)C)NC(=O)[C@H](Cc1ccc(O)cc1)NC(=O)[C@H](CCCCN)NC(=O)[C@H](CO)NC(=O)[C@H](Cc1ccc(O)cc1)NC(=O)[C@H](CSCCC(=O)O)NC(=O)[C@H](CO)NC(=O)[C@@H](NC(=O)[C@@H](N)Cc1ccccc1)[C@@H](C)O)C(C)C)C(=O)N[C@@H](CC(N)=O)C(=O)N[C@H](C(N)=O)[C@@H](C)O (H-FTSC(CH2CH2COOH)YSKYLDSRRAQDFVQWLMNT-NH2)
7 | – | 0.192 µM | 0.0367 µM | CSCC[C@H](NC(=O)[C@H](CC(C)C)NC(=O)[C@H](Cc1c[nH]c2ccccc12)NC(=O)[C@H](CCC(N)=O)NC(=O)[C@@H](NC(=O)[C@H](Cc1ccccc1)NC(=O)[C@H](CC(=O)O)NC(=O)[C@H](CCC(N)=O)NC(=O)[C@H](C)NC(=O)[C@H](CCCNC(=N)N)NC(=O)[C@H](CCCNC(=N)N)NC(=O)[C@H](CO)NC(=O)[C@H](CC(=O)O)NC(=O)[C@H](CC(C)C)NC(=O)[C@H](Cc1ccc(O)cc1)NC(=O)[C@H](CCCCN)NC(=O)[C@H](CO)NC(=O)[C@H](Cc1ccc(O)cc1)NC(=O)[C@H](CCC(=O)O)NC(=O)[C@H](CO)NC(=O)[C@@H](NC(=O)[C@@H](N)Cc1ccc(F)c(F)c1)[C@@H](C)O)C(C)C)C(=O)N[C@@H](CC(N)=O)C(=O)N[C@H](C(N)=O)[C@@H](C)O (HELM PEPTIDE1{[N[C@@H](Cc1ccc(F)c(F)c1)C(=O)[*:2]].T.S.E.Y.S.K.Y.L.D.S.R.R.A.Q.D.F.V.Q.W.L.M.N.T.[am]}$$$$V2.0)
8 | Active | – | – | CSCC[C@H](NC(=O)[C@H](CC(C)C)NC(=O)[C@H](Cc1c[nH]c2ccccc12)NC(=O)[C@H](CCC(N)=O)NC(=O)[C@@H](NC(=O)[C@H](Cc1ccccc1)NC(=O)[C@H](CC(=O)O)NC(=O)[C@H](CCC(N)=O)NC(=O)[C@H](C)NC(=O)[C@H](CCCNC(=N)N)NC(=O)[C@H](CCCNC(=N)N)NC(=O)[C@H](CO)NC(=O)[C@H](CC(=O)O)NC(=O)[C@H](CC(C)C)NC(=O)[C@H](Cc1ccc(O)cc1)NC(=O)[C@H](CCCCN)NC(=O)[C@H](CO)NC(=O)[C@H](Cc1ccc(O)cc1)NC(=O)[C@H](CCCC(=O)O)NC(=O)[C@H](CO)NC(=O)[C@@H](NC(=O)[C@H](Cc1ccccc1)NC(=O)[C@@H](NC(=O)CNC(=O)[C@H](CCC(N)=O)NC(=O)[C@@H](N)CO)[C@@H](C)O)[C@@H](C)O)C(C)C)C(=O)N[C@@H](CC(N)=O)C(=O)N[C@H](C(N)=O)[C@@H](C)O
9 | – | 0.13 µM | 0.0371 µM | Ac-FTSEYSKYLDSRRAQDFVQWLMNT-NH2
10 | Active | – | – | CSCC[C@H](NC(=O)[C@H](CC(C)C)NC(=O)[C@H](Cc1c[nH]c2ccccc12)NC(=O)[C@H](CCC(N)=O)NC(=O)[C@@H](NC(=O)[C@H](Cc1ccccc1)NC(=O)[C@H](CC(=O)O)NC(=O)[C@H](CCC(N)=O)NC(=O)[C@H](C)NC(=O)[C@H](CCCNC(=N)N)NC(=O)[C@H](CCCNC(=N)N)NC(=O)[C@H](CO)NC(=O)[C@H](CC(=O)O)NC(=O)[C@H](CC(C)C)NC(=O)[C@H](Cc1ccc(O)cc1)NC(=O)[C@H](CCCCN)NC(=O)[C@H](CO)NC(=O)[C@H](Cc1ccc(O)cc1)NC(=O)[C@H](CSCC(=O)O)NC(=O)[C@H](CO)NC(=O)[C@@H](NC(=O)[C@H](Cc1ccccc1)NC(=O)[C@@H](NC(=O)CNC(=O)[C@H](CCC(N)=O)NC(=O)[C@@H](N)CO)[C@@H](C)O)[C@@H](C)O)C(C)C)C(=O)N[C@@H](CC(N)=O)C(=O)N[C@H](C(N)=O)[C@@H](C)O
11 | – | 0.0477 µM | 0.114 µM | CSCC[C@H](NC(=O)[C@H](CC(C)C)NC(=O)[C@H](Cc1c[nH]c2ccccc12)NC(=O)[C@H](CCC(N)=O)NC(=O)[C@@H](NC(=O)[C@H](Cc1ccccc1)NC(=O)[C@H](CC(=O)O)NC(=O)[C@H](CCC(N)=O)NC(=O)[C@H](C)NC(=O)[C@H](CCCNC(=N)N)NC(=O)[C@H](CCCNC(=N)N)NC(=O)[C@H](CO)NC(=O)[C@H](CC(=O)O)NC(=O)[C@H](CC(C)C)NC(=O)[C@H](Cc1ccc(O)cc1)NC(=O)[C@H](CCCCN)NC(=O)[C@H](CO)NC(=O)[C@H](Cc1ccc(O)cc1)NC(=O)[C@H](CCC(=O)O)NC(=O)[C@H](CO)NC(=O)[C@@H](NC(=O)C(C)Cc1ccccc1)[C@@H](C)O)C(C)C)C(=O)N[C@@H](CC(N)=O)C(=O)N[C@H](C(N)=O)[C@@H](C)O (some centres not stated) (HELM PEPTIDE1{[CC(Cc1ccccc1)C(=O)[*:2]].T.S.E.Y.S.K.Y.L.D.S.R.R.A.Q.D.F.V.Q.W.L.M.N.T.[am]}$$$$V2.0)
12 | – | 0.0714 µM | – | CSCC[C@H](NC(=O)[C@H](CC(C)C)NC(=O)[C@H](Cc1c[nH]c2ccccc12)NC(=O)[C@H](CCC(N)=O)NC(=O)[C@@H](NC(=O)[C@H](Cc1ccccc1)NC(=O)[C@H](CC(=O)O)NC(=O)[C@H](CCC(N)=O)NC(=O)[C@H](C)NC(=O)[C@H](CCCNC(=N)N)NC(=O)[C@H](CCCNC(=N)N)NC(=O)[C@H](CO)NC(=O)[C@H](CC(=O)O)NC(=O)[C@H](CC(C)C)NC(=O)[C@H](Cc1ccc(O)cc1)NC(=O)[C@H](CCCCN)NC(=O)[C@H](CO)NC(=O)[C@H](Cc1ccc(O)cc1)NC(=O)[C@H](CSCC(=O)O)NC(=O)[C@H](CO)NC(=O)[C@@H](NC(=O)[C@@H](N)Cc1ccccc1)[C@@H](C)O)C(C)C)C(=O)N[C@@H](CC(N)=O)C(=O)N[C@H](C(N)=O)[C@@H](C)O (H-FTSC(Carboxymethyl)YSKYLDSRRAQDFVQWLMNT-NH2)
13 | Active | – | – | CSCC[C@H](NC(=O)[C@H](CC(C)C)NC(=O)[C@H](Cc1c[nH]c2ccccc12)NC(=O)[C@H](CCC(N)=O)NC(=O)[C@@H](NC(=O)[C@H](Cc1ccccc1)NC(=O)[C@H](CC(=O)O)NC(=O)[C@H](CCC(N)=O)NC(=O)[C@H](C)NC(=O)[C@H](CCCNC(=N)N)NC(=O)[C@H](CCCNC(=N)N)NC(=O)[C@H](CO)NC(=O)[C@H](CC(=O)O)NC(=O)[C@H](CC(C)C)NC(=O)[C@H](Cc1ccc(O)cc1)NC(=O)[C@H](CCCCN)NC(=O)[C@H](CO)NC(=O)[C@H](Cc1ccc(O)cc1)NC(=O)CN(CCC(=O)O)C(=O)[C@H](CO)NC(=O)[C@@H](NC(=O)[C@H](Cc1ccccc1)NC(=O)[C@@H](NC(=O)CNC(=O)[C@H](CCC(N)=O)NC(=O)[C@@H](N)CO)[C@@H](C)O)[C@@H](C)O)C(C)C)C(=O)N[C@@H](CC(N)=O)C(=O)N[C@H](C(N)=O)[C@@H](C)O

From ChEMBL document CHEMBL4808176, “Optimization of Truncated Glucagon Peptides to Achieve Selective, High Potency, Full Antagonists” (J Med Chem, 2021)
